Experimental data reported in patent publication US20250332173A1, “COMPOUNDS AND METHODS FOR MODULATING NUCLEIC ACID SPLICING” (REMIX THERAPEUTICS INC., priority 2021, published 2025).
Like-named read-outs stand apart in the source and are kept apart here.

Tests used:
HTT mRNA = assay: RT-qPCR splicing assay, HTT canonical junction (CJ) and alternative junction (AJ) mRNA; assay type: cell-based, human; conditions: Homo sapiens; for AC50: increase in HTT alternative junction (AJ) mRNA, read-out: HTT AJ AC50
In short: (§1)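 A673 or K562 cells were treated for 24 h at 37 °C with an 11-point 3-fold compound dilution series (top final concentration 10 uM, DMSO ≤0.25%). After lysis, one-step TaqMan RT-qPCR quantified junction transcripts, normalized to PPIA for A673 or to GAPDH/GUSB for K562.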

[1] = tested on: K562 (human chronic myelogenous leukemia) cells; assay: Cell Titer Glo 2.0 cell viability assay; assay type: cell-based; conditions: Homo sapiens, K562, 72 h, K562 cells, 72 hours, Cell Titer Glo 2.0; read-out: K562 GI50
MYB mRNA = assay: RT-qPCR splicing assay, MYB canonical junction (CJ) and alternative junction (AJ) mRNA; assay type: cell-based, human; conditions: Homo sapiens; for AC50: increase in MYB alternative junction (AJ) mRNA, read-out: MYB AJ AC50
In short: as §1

SMN2 mRNA = assay: RT-qPCR splicing assay, SMN2 canonical junction (CJ) mRNA; assay type: cell-based, human; conditions: Homo sapiens; Table 5 panel; canonical junction qPCR; compound concentration having 50% response in CJ decrease; read-out: SMN2 IC50 (decrease in CJ mRNA levels)
In short: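 A673 cells (DMEM/10% FBS) or K562 cells (IMDM/10% FBS) were treated 24 h at 37° C. with 11-point 3-fold dilutions (top 10 uM, ≤0.25% DMSO). Canonical-junction mRNA was quantified in lysates by RT-qPCR, normalized to GAPDH, GUSB or PPIA.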

[2] = decrease in HTT canonical junction (CJ) mRNA, RT-qPCR, read-out: HTT CJ IC50
[3] = Table 5 panel, canonical junction qPCR, compound concentration having 50% response in CJ decrease, read-out: HTT IC50 (decrease in CJ mRNA levels)
[4] = Table 5 panel, canonical junction qPCR, compound concentration having 50% response in CJ decrease, read-out: MYB IC50 (decrease in CJ mRNA levels)
[5] = decrease in MYB canonical junction (CJ) mRNA, RT-qPCR, read-out: MYB CJ IC50

| IC50 (HTT mRNA; [2]) | IC50 (HTT mRNA; [3]) | GI50 [1] | IC50 (MYB mRNA; [4]) | IC50 (MYB mRNA; [5]) | IC50 (SMN2 mRNA) | SMILES | AC50 (HTT mRNA; RT-qPCR) | AC50 (MYB mRNA; RT-qPCR) |
| --- | --- | --- | --- | --- | --- | --- | --- | --- |
| 1000 to 10000 nM | 1000 to 10000 nM | 1000 to 10000 nM | 1000 to 10000 nM | 1000 to 10000 nM | 100 to 1000 nM | CCN1CCC(N2CCc3cc(-c4cc(C)c5nc(C)cn5n4)ccc3C2=O)CC1 [Compound 270] | 1000 to 10000 nM | 1000 to 10000 nM |
| 100 to 1000 nM | < 100 nM | 100 to 1000 nM | < 100 nM | 100 to 1000 nM | < 100 nM | Cc1cn2nc(-c3ccc4c(=O)n([C@@H]5CCN[C@H](C)C5)ncc4c3)cc(C)c2n1 [Compound 272] | < 100 nM | < 100 nM |
